Measured values as given in PubChem BioAssay (NCI).
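Cultured in 96-well plates, cells were exposed to test compound for 48 hours across five concentrations. At the TGI there is no net growth.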

What was measured:
Assay in all cases: growth of human tumour cells (NCI), 48 h
786-0 renal = test system: 786-0 renal
A498 renal = test system: A498 renal
A549 NSCLC = test system: A549 NSCLC
ACHN renal = test system: ACHN renal
BT-549 breast = test system: BT-549 breast
CAKI-1 renal = test system: CAKI-1 renal
CCRF-CEM leukemia = test system: CCRF-CEM leukemia
COLO 205 colon = test system: COLO 205 colon
DU-145 prostate = test system: DU-145 prostate
EKVX NSCLC = test system: EKVX NSCLC
HCC-2998 colon = test system: HCC-2998 colon
HCT-116 colon = test system: HCT-116 colon
HCT-15 colon = test system: HCT-15 colon
HL-60(TB) leukemia = test system: HL-60(TB) leukemia
HOP-62 NSCLC = test system: HOP-62 NSCLC
HOP-92 NSCLC = test system: HOP-92 NSCLC
HS 578T breast = test system: HS 578T breast
HT29 colon = test system: HT29 colon
IGROV1 ovarian = test system: IGROV1 ovarian
K-562 leukemia = test system: K-562 leukemia
KM12 colon = test system: KM12 colon
LOX IMVI melanoma = test system: LOX IMVI melanoma
M14 melanoma = test system: M14 melanoma
MCF7 breast = test system: MCF7 breast
MDA-MB-231 breast = test system: MDA-MB-231 breast
MDA-MB-435 = test system: MDA-MB-435
MDA-N = test system: MDA-N
NCI-H226 lung = test system: NCI-H226 lung
NCI-H23 lung = test system: NCI-H23 lung
NCI-H460 lung = test system: NCI-H460 lung
NCI-H522 lung = test system: NCI-H522 lung
NCI/ADR-RES ovarian = test system: NCI/ADR-RES ovarian
OVCAR-3 ovarian = test system: OVCAR-3 ovarian
OVCAR-5 ovarian = test system: OVCAR-5 ovarian
OVCAR-8 ovarian = test system: OVCAR-8 ovarian
PC-3 prostate = test system: PC-3 prostate
RXF 393 renal = test system: RXF 393 renal
SF-268 CNS = test system: SF-268 CNS
SF-295 CNS = test system: SF-295 CNS
SF-539 CNS = test system: SF-539 CNS
SK-MEL-2 melanoma = test system: SK-MEL-2 melanoma
SK-MEL-28 melanoma = test system: SK-MEL-28 melanoma
SK-MEL-5 melanoma = test system: SK-MEL-5 melanoma
SN12C renal = test system: SN12C renal
SNB-19 CNS = test system: SNB-19 CNS
SNB-75 CNS = test system: SNB-75 CNS
SR leukemia = test system: SR leukemia
SW-620 colon = test system: SW-620 colon
T-47D breast = test system: T-47D breast
TK-10 renal = test system: TK-10 renal
U251 CNS = test system: U251 CNS
UACC-257 melanoma = test system: UACC-257 melanoma
UACC-62 melanoma = test system: UACC-62 melanoma
UO-31 renal = test system: UO-31 renal
MALME-3M melanoma = test system: MALME-3M melanoma
MOLT-4 leukemia = test system: MOLT-4 leukemia
OVCAR-4 ovarian = test system: OVCAR-4 ovarian
RPMI-8226 leukemia = test system: RPMI-8226 leukemia
SK-OV-3 ovarian = test system: SK-OV-3 ovarian

O=C(O)c1ccc(OCc2nc3cc(C(F)(F)F)ccc3nc2-c2ccccc2)cc1
TGI (786-0 renal): > 100 µM | TGI (A498 renal): > 100 µM | TGI (A549 NSCLC): > 100 µM | TGI (ACHN renal): 67.6 µM | TGI (BT-549 breast): > 100 µM | TGI (CAKI-1 renal): 19.6 µM | TGI (CCRF-CEM leukemia): > 100 µM | TGI (COLO 205 colon): 37.8 µM | TGI (DU-145 prostate): > 100 µM | TGI (EKVX NSCLC): > 100 µM | TGI (HCC-2998 colon): > 100 µM | TGI (HCT-116 colon): > 100 µM | TGI (HCT-15 colon): > 100 µM | TGI (HL-60(TB) leukemia): > 100 µM | TGI (HOP-62 NSCLC): > 100 µM | TGI (HOP-92 NSCLC): > 100 µM | TGI (HS 578T breast): > 100 µM | TGI (HT29 colon): > 100 µM | TGI (IGROV1 ovarian): > 100 µM | TGI (K-562 leukemia): > 100 µM | TGI (KM12 colon): > 100 µM | TGI (LOX IMVI melanoma): > 100 µM | TGI (M14 melanoma): > 100 µM | TGI (MCF7 breast): > 100 µM | TGI (MDA-MB-231 breast): > 100 µM | TGI (MDA-MB-435): > 100 µM | TGI (MDA-N): > 100 µM | TGI (NCI-H226 lung): > 100 µM | TGI (NCI-H23 lung): > 100 µM | TGI (NCI-H460 lung): > 100 µM | TGI (NCI-H522 lung): > 100 µM | TGI (NCI/ADR-RES ovarian): > 100 µM | TGI (OVCAR-3 ovarian): > 100 µM | TGI (OVCAR-5 ovarian): > 100 µM | TGI (OVCAR-8 ovarian): > 100 µM | TGI (PC-3 prostate): > 100 µM | TGI (RXF 393 renal): > 100 µM | TGI (SF-268 CNS): > 100 µM | TGI (SF-295 CNS): > 100 µM | TGI (SF-539 CNS): 76.8 µM | TGI (SK-MEL-2 melanoma): > 100 µM | TGI (SK-MEL-28 melanoma): > 100 µM | TGI (SK-MEL-5 melanoma): > 100 µM | TGI (SN12C renal): > 100 µM | TGI (SNB-19 CNS): > 100 µM | TGI (SNB-75 CNS): 98.7 µM | TGI (SR leukemia): > 100 µM | TGI (SW-620 colon): > 100 µM | TGI (T-47D breast): > 100 µM | TGI (TK-10 renal): > 100 µM | TGI (U251 CNS): > 100 µM | TGI (UACC-257 melanoma): > 100 µM | TGI (UACC-62 melanoma): > 100 µM | TGI (UO-31 renal): 39 µM

CCN1CCC(O)(/C=C/c2ccc(C)cc2C)C(C(=O)/C=C/c2ccc(C)cc2C)C1 (stereo unspecified)
TGI (786-0 renal): 3.32 µM | TGI (A498 renal): 22.7 µM | TGI (A549 NSCLC): 11.1 µM | TGI (ACHN renal): 3.47 µM | TGI (BT-549 breast): 8.52 µM | TGI (CAKI-1 renal): 9.85 µM | TGI (CCRF-CEM leukemia): 7.8 µM | TGI (COLO 205 colon): 4.05 µM | TGI (DU-145 prostate): 10.5 µM | TGI (EKVX NSCLC): > 26 µM | TGI (HCC-2998 colon): 3.37 µM | TGI (HCT-15 colon): 4.14 µM | TGI (HL-60(TB) leukemia): > 100 µM | TGI (HOP-62 NSCLC): 8.54 µM | TGI (HOP-92 NSCLC): 3.8 µM | TGI (HS 578T breast): 5.38 µM | TGI (HT29 colon): 5.44 µM | TGI (IGROV1 ovarian): 8.98 µM | TGI (K-562 leukemia): > 100 µM | TGI (LOX IMVI melanoma): 3.71 µM | TGI (M14 melanoma): 35.7 µM | TGI (MALME-3M melanoma): 11.4 µM | TGI (MCF7 breast): 24.4 µM | TGI (MDA-MB-231 breast): 4.32 µM | TGI (MDA-MB-435): 7.95 µM | TGI (MDA-N): 6.26 µM | TGI (MOLT-4 leukemia): 5.08 µM | TGI (NCI-H226 lung): 7.79 µM | TGI (NCI-H23 lung): 7.86 µM | TGI (NCI-H460 lung): 3.32 µM | TGI (NCI-H522 lung): 3.73 µM | TGI (NCI/ADR-RES ovarian): 7.31 µM | TGI (OVCAR-3 ovarian): 7.84 µM | TGI (OVCAR-4 ovarian): 7.99 µM | TGI (OVCAR-5 ovarian): 14.7 µM | TGI (OVCAR-8 ovarian): 5.08 µM | TGI (PC-3 prostate): 9.17 µM | TGI (RPMI-8226 leukemia): > 21.2 µM | TGI (RXF 393 renal): 14.3 µM | TGI (SF-268 CNS): 9.12 µM | TGI (SF-295 CNS): 4.94 µM | TGI (SF-539 CNS): 4.18 µM | TGI (SK-MEL-2 melanoma): 11.1 µM | TGI (SK-MEL-28 melanoma): 10.9 µM | TGI (SK-MEL-5 melanoma): 9.23 µM | TGI (SK-OV-3 ovarian): 26.7 µM | TGI (SN12C renal): 7.04 µM | TGI (SNB-19 CNS): 20.3 µM | TGI (SNB-75 CNS): 36.6 µM | TGI (SR leukemia): 7.94 µM | TGI (SW-620 colon): 10.4 µM | TGI (T-47D breast): 8.01 µM | TGI (TK-10 renal): 3.41 µM | TGI (U251 CNS): 11.7 µM | TGI (UACC-257 melanoma): 11.5 µM | TGI (UACC-62 melanoma): 11 µM | TGI (UO-31 renal): 6.66 µM
